Results on three compounds are retold here after patent US20210030005A1, “BENZOXABOROLE COMPOSITIONS HAVING A GROWTH ENHANCING EFFECT” (BORAGEN, INC., priority 2018, published 2021).

Molecules are shown by their SMILES.

Experiment [1] concerns Asian Soybean Rust (Phakopsora pachyrhizi). Put plainly: Field trial, Asian Soybean Rust severity on soybean. Type of experiment: in vivo. As to the method: (§1) In this example, diseased soybeans having Asian Soybean Rust (Phakopsora pachyrhizi) were treated with BAG8 and Azoxystrobin. Testing was performed to assess the fungicidal effect of the compounds on Asian Soybean Rust and to assess the growth enhancing effects of the compounds on the diseased soybeans.
(§2) Soybeans were planted into 6×30 ft plots and replicated four times in a randomized complete block design. Two treatments and an untreated control were tested for efficacy against Asian Soybean Rust (Phakopsora pachyrhizi) and assessed for yield at the conclusion of the growing season. Foliar applications of the two treatments, BAG8 at 0.25 pounds of active ingredient per acre and azoxystrobin at 0.25 pounds of active ingredient per acre, were applied to the plots at two separate times: growth stage R1 (flowering) and growth stage R3 (bean pod formation). Best practices were used consistently across the test plots with regard to field conditions such as fertilization, insect control, weed control, and irrigation. Disease assessments were taken in each plot 28 days after the final foliar fungicide application. At maturity, each plot was harvested using standard harvesting equipment. After shelling, the beans were weighed at 13% moisture and yield calculations extrapolated to bushels per acre.
(§3) Analysis of variance (ANOVA) was used to examine disease severity data and means were separated using Fisher's least significant difference (LSD) method at α=0.05. […]

The next experiment relates to diseased soybeans. Kind of experiment: Field trial, yield of diseased soybeans. Type of experiment: in vivo, soybean. The method, then: as §1, §2, §3
Experiment [2] deals with Southern Rust of Maize (Puccinia polysora). Put plainly: Field trial, Southern Rust of Maize severity on maize. Type of experiment: in vivo. The method, then:
(§4) In this example, diseased maize having Southern Rust of Maize (Puccinia polysora) was treated with BAG8, Azoxystrobin, and Boscalid. Testing was performed to assess the fungicidal effect of the compounds on Southern Rust of Maize (Puccinia polysora) and to assess the growth enhancing effect of the compounds on the diseased maize.
(§5) Maize was planted into 6×30 ft plots and replicated four times in a randomized complete block design. Three treatments and an untreated control were tested for efficacy against Southern Rust of Maize (Puccinia polysora) and assessed for yield at the conclusion of the growing season. Foliar applications of the three treatments, BAG8 at 0.25 pounds of active ingredient per acre, azoxystrobin at 0.25 pounds of active ingredient per acre, and boscalid at 0.24 pounds of active ingredient per acre, were applied to the plots at growth stage V8. Best practices were used consistently across the test plots with regard to field conditions such as fertilization, insect control, weed control, and irrigation. Disease assessments were taken in each plot 28 days after the foliar fungicide application. At maturity, each plot was harvested using standard harvesting equipment. After shelling, the kernels were weighed at 11% moisture and yield calculations extrapolated to bushels per acre.
as §3

The next experiment relates to diseased maize. Kind of experiment: Field trial, yield of diseased maize. Particulars: for Yield: 11% moisture. Format: in vivo. As to the method: as §4, §5, §3
A further experiment has as its system Tomato. The settings on record: Davis et al. 2003, cited from earlier work.

As for `CO/C=C(/C(=O)OC)c1ccccc1Oc1cc(Oc2ccccc2C#N)ncn1` [Azoxystrobin, reference compound], the “reduced disease in comparison to untreated control” value in experiment [1] (0.25 lb ai/A foliar) is 66%. The “Disease Severity (% Leaf Coverage)” value amounted to 30.6 d % Leaf Coverage in experiment [1] (0.25 lb ai/A foliar at R1 and R3, 28 days after final application); 0.0 c % Leaf Coverage in experiment [2] (0.25 lb ai/A foliar at V8, 28 days after application). The increased soybean yield with diseased soybeans (0.25 lb ai/A foliar) came to 305%. Besides, the Yield in the experiment with diseased soybeans (0.25 lb ai/A foliar at R1 and R3, harvest at maturity, 13% moisture) was determined as 59.2 a bu/A; in the experiment on diseased maize (0.25 lb ai/A foliar at V8, harvest at maturity), 151.1 a bu/A. For the same compound, the “reduced disease relative to the untreated control” value in experiment [2] (0.25 lb ai/A foliar) came to 100%. Further, the “increased yield relative to untreated control” value with diseased maize (0.25 lb ai/A foliar) was found to be 205%.
As for `OB(O)O` [boric acid], in the experiment on Tomato, the “yield and shelf-life of harvested tomatoes” value is “higher yield and longer shelf-life for harvested tomatoes”. In addition, the “growth of the plant” value in the experiment with Tomato (hydroponic fertilizer) is “increased growth of the plant, plant parts, and plant propagation materials”.
With `O=C(Nc1ccccc1-c1ccc(Cl)cc1)c1cccnc1Cl` [Boscalid], the “Disease Severity (% Leaf Coverage)” value in experiment [2] (0.24 lb ai/A foliar at V8, 28 days after application) is listed as 25.1 b % Leaf Coverage. The same compound had a Yield in the experiment on diseased maize (0.24 lb ai/A foliar at V8, harvest at maturity) of 91.6 c bu/A.
